In ChEMBL document CHEMBL3817792, “Targeting the Motion of Shikimate Kinase: Development of Competitive Inhibitors that Stabilize an Inactive Open Conformation of the Enzyme” (J Med Chem, 2016):

What was measured:
[1] = Inhibition of Mycobacterium tuberculosis shikimate kinase using shikimic acid substrate by measuring oxidation of NADH to NAD by pyruvate kinase and lactate dehydrogenase coupled enzyme assay based Dixon plot analysis
[2] = molecular target: Shikimate kinase (Helicobacter pylori (strain ATCC 700392 / 26695) (Campylobacterpylori), UniProt P56073); assay: Inhibition of Helicobacter pylori shikimate kinase using shikimic acid substrate by measuring oxidation of NADH to NAD by pyruvate kinase and lactate dehydrogenase coupled enzyme assay based Dixon plot analysis
[3] = system: Helicobacter pylori; assay: Antimicrobial activity against Helicobacter pylori clinical isolates assessed as inhibition of visible microbial growth incubated for 6 days by agar dilution method; assay type: functional; settings: 144 h
[4] = Inhibition of Mycobacterium tuberculosis shikimate kinase

Sequence of Shikimate kinase (P56073 whole entry): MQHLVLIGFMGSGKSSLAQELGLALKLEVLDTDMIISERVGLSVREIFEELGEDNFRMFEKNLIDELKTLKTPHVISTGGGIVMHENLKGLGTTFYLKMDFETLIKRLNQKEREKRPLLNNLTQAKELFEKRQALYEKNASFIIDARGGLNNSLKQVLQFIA

| SMILES | Ki [1] [µM] | Ki [2] [µM] | MIC [3] [µg/mL] | Ki [4] [µM] |
| --- | --- | --- | --- | --- |
| O=C(O)C1=C[C@@H](O)[C@@H](O)[C@H](OCc2ccc3sccc3c2)C1 | 43 | 0.56 | – | – |
| O=C(O)C1=C[C@@H](O)[C@@H](O)[C@H](n2cc(COc3ccccc3)nn2)C1 | > 2000 | 67 | – | – |
| O=C(O)C1=C[C@@H](O)[C@@H](O)[C@H](n2cc(Cc3ccccc3)nn2)C1 | > 2000 | 95 | – | – |
| O=C(O)C1=C[C@@H](O)[C@@H](O)[C@H](OCc2ccccc2)C1 | 360 | 3 | – | – |
| O=C(O)C1=C[C@@H](O)[C@@H](O)[C@H](OCc2cccc([N+](=O)[O-])c2)C1 | 10 | 0.46 | – | – |
| O=C(O)C1=C[C@@H](O)[C@@H](O)[C@H](OCc2cccc(F)c2)C1 | 180 | 1.28 | – | – |
| COC(=O)C1=C[C@@H](O)[C@@H](O)[C@H](n2cc(Cc3ccccc3)nn2)C1 | – | – | 256 | – |
| COC(=O)C1=C[C@H](N)[C@@H](O)[C@H](OCc2ccc3ccccc3c2)C1 | – | – | 64 | – |
| COC(=O)C1=C[C@@H](O)[C@H](O)[C@H](OCc2cccc([N+](=O)[O-])c2)C1 | – | – | 128 | – |
| Cc1ccc(CO[C@@H]2CC(C(=O)O)=C[C@@H](O)[C@H]2O)cc1 | 166 | 10.9 | – | – |
| COC(=O)C1=C[C@@H](O)[C@@H](O)[C@H](OCc2ccc3sccc3c2)C1 | – | – | 4 | – |
| N[C@H]1C=C(C(=O)O)C[C@@H](O)[C@@H]1O | – | – | – | 65 |
| COC(=O)C1=C[C@@H](O)[C@@H](O)[C@H](n2cc(COc3ccccc3)nn2)C1 | – | – | 128 | – |
| COc1cccc(CO[C@@H]2CC(C(=O)O)=C[C@@H](O)[C@H]2O)c1 | 135 | 1 | – | – |
| O=C(O)C1=C[C@@H](O)[C@@H](O)[C@H](OCc2c(F)c(F)c(F)c(F)c2F)C1 | 710 | 41 | – | – |
| CC1(C)S[C@@H]2[C@H](NC(=O)[C@H](N)c3ccccc3)C(=O)N2[C@H]1C(=O)O [AMPICILLIN] | – | – | 1 | – |
| N[C@H]1C=C(C(=O)O)C[C@@H](OCc2ccc3ccccc3c2)[C@@H]1O | > 2000 | > 800 | – | – |
| COC(=O)C1=C[C@H](N)[C@@H](O)[C@H](OCc2ccc3sccc3c2)C1 | – | – | 256 | – |
| O=C(O)C1=C[C@@H](O)[C@@H](O)[C@H](OCc2ccc3ccccc3c2)C1 | 22 | 1.8 | – | – |
| Cc1cccc(CO[C@@H]2CC(C(=O)O)=C[C@@H](O)[C@H]2O)c1 | 109 | 2.1 | – | – |
| N[C@H]1C=C(C(=O)O)C[C@@H](OCc2ccc3sccc3c2)[C@@H]1O | 415 | 535 | – | – |
